Laboratory results: patent publication US8192962B2, “Processes for detecting toxic substances” (Daikin Industries, Ltd., priority 2001, dated 2012)

System: Metabolism protein genes
Assay: DNA chip mRNA expression in yeast, metabolism protein genes (Table 7)
Format: cell-based, Saccharomyces cerevisiae S288C
In short: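 In this screen, yeast in logarithmic growth are challenged for two hours with a toxic substance at a non-lethal inhibitory concentration. Their mRNA, converted to Cy3- or Cy5-labeled cDNA, hybridizes at 65° C. to a chip spanning every yeast gene, and expression is expressed as a ratio to untreated cells.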

## CCCCC[C@H](O)CC(=O)CCc1ccc(O)c(OC)c1 [(13), gingerol]
Yeast gene YJL099W
  The level of expressed mRNA in the presence of chemical substance/The level of expressed mRNA in the absence of chemical substance: 2.4
Yeast gene YJL121C
  level of expressed mRNA in the presence/in the absence of chemical substance: 0.7
Yeast gene YJL167W
  level of expressed mRNA in the presence/in the absence of chemical substance: 0.9
Yeast gene YJL172W
  The level of expressed mRNA in the presence of chemical substance/The level of expressed mRNA in the absence of chemical substance: 3.1
Yeast gene YJL216C
  level of expressed mRNA in the presence/in the absence of chemical substance: 1.1
Yeast gene YJR077C
  level of expressed mRNA in the presence/in the absence of chemical substance: 0.9
Yeast gene YJR137C
  The level of expressed mRNA in the presence of chemical substance/The level of expressed mRNA in the absence of chemical substance: 2.1
Yeast gene YJR143C
  level of expressed mRNA in the presence/in the absence of chemical substance: 0.3
Yeast gene YJR148W
  The level of expressed mRNA in the presence of chemical substance/The level of expressed mRNA in the absence of chemical substance: 1.1
Yeast gene YJR155W
  The level of expressed mRNA in the presence of chemical substance/The level of expressed mRNA in the absence of chemical substance: 5.7
Yeast gene YKL035W
  The level of expressed mRNA in the presence of chemical substance/The level of expressed mRNA in the absence of chemical substance: 2.0
Yeast gene YKL060C
  level of expressed mRNA in the presence/in the absence of chemical substance: 1.2
Yeast gene YKL091C
  The level of expressed mRNA in the presence of chemical substance/The level of expressed mRNA in the absence of chemical substance: 2.0
Yeast gene YKL104C
  The level of expressed mRNA in the presence of chemical substance/The level of expressed mRNA in the absence of chemical substance: 2.2
Yeast gene YKL148C
  level of expressed mRNA in the presence/in the absence of chemical substance: 0.8
Yeast gene YKL152C
  The level of expressed mRNA in the presence of chemical substance/The level of expressed mRNA in the absence of chemical substance: 2.7
Yeast gene YKL157W
  level of expressed mRNA in the presence/in the absence of chemical substance: 2.3
Yeast gene YKL213C
  The level of expressed mRNA in the presence of chemical substance/The level of expressed mRNA in the absence of chemical substance: 2.1
Yeast gene YKL215C
  The level of expressed mRNA in the presence of chemical substance/The level of expressed mRNA in the absence of chemical substance: 2.6
Yeast gene YKR034W
  level of expressed mRNA in the presence/in the absence of chemical substance: 1.2
Yeast gene YKR039W
  The level of expressed mRNA in the presence of chemical substance/The level of expressed mRNA in the absence of chemical substance: 1.3
Yeast gene YLL058W
  The level of expressed mRNA in the presence of chemical substance/The level of expressed mRNA in the absence of chemical substance: 2.3
Yeast gene YLR006C
  level of expressed mRNA in the presence/in the absence of chemical substance: 0.8
Yeast gene YLR044C
  level of expressed mRNA in the presence/in the absence of chemical substance: 1.7
Yeast gene YLR056W
  level of expressed mRNA in the presence/in the absence of chemical substance: 0.2
Yeast gene YLR058C
  level of expressed mRNA in the presence/in the absence of chemical substance: 0.3
Yeast gene YLR081W
  level of expressed mRNA in the presence/in the absence of chemical substance: 0.6
Yeast gene YLR089C
  level of expressed mRNA in the presence/in the absence of chemical substance: 1.0
Yeast gene YLR180W
  The level of expressed mRNA in the presence of chemical substance/The level of expressed mRNA in the absence of chemical substance: 0.6
Yeast gene YLR273C
  The level of expressed mRNA in the presence of chemical substance/The level of expressed mRNA in the absence of chemical substance: 1.7
Yeast gene YLR284C
  level of expressed mRNA in the presence/in the absence of chemical substance: 0.8
Yeast gene YLR299W
  The level of expressed mRNA in the presence of chemical substance/The level of expressed mRNA in the absence of chemical substance: 2.9
Yeast gene YLR304C
  level of expressed mRNA in the presence/in the absence of chemical substance: 0.5
Yeast gene YLR307W
  The level of expressed mRNA in the presence of chemical substance/The level of expressed mRNA in the absence of chemical substance: 1.0
Yeast gene YLR348C
  The level of expressed mRNA in the presence of chemical substance/The level of expressed mRNA in the absence of chemical substance: 1.9
Yeast gene YLR354C
  level of expressed mRNA in the presence/in the absence of chemical substance: 1.0
Yeast gene YLR372W
  level of expressed mRNA in the presence/in the absence of chemical substance: 0.1
Yeast gene YML022W
  level of expressed mRNA in the presence/in the absence of chemical substance: 0.2
Yeast gene YMR011W
  level of expressed mRNA in the presence/in the absence of chemical substance: 0.4
Yeast gene YMR015C
  level of expressed mRNA in the presence/in the absence of chemical substance: 0.4
Yeast gene YMR083W
  level of expressed mRNA in the presence/in the absence of chemical substance: 0.9
Yeast gene YMR189W
  The level of expressed mRNA in the presence of chemical substance/The level of expressed mRNA in the absence of chemical substance: 0.9
Yeast gene YMR205C
  level of expressed mRNA in the presence/in the absence of chemical substance: 1.3
Yeast gene YMR261C
  level of expressed mRNA in the presence/in the absence of chemical substance: 1.6
Yeast gene YMR296C
  The level of expressed mRNA in the presence of chemical substance/The level of expressed mRNA in the absence of chemical substance: 0.9
Yeast gene YMR323W
  level of expressed mRNA in the presence/in the absence of chemical substance: 1.8
Yeast gene YNL012W
  The level of expressed mRNA in the presence of chemical substance/The level of expressed mRNA in the absence of chemical substance: 2.9
Yeast gene YNL025C
  level of expressed mRNA in the presence/in the absence of chemical substance: 1.3
Yeast gene YNL037C
  The level of expressed mRNA in the presence of chemical substance/The level of expressed mRNA in the absence of chemical substance: 1.9
Yeast gene YNL045W
  The level of expressed mRNA in the presence of chemical substance/The level of expressed mRNA in the absence of chemical substance: 2.6
Yeast gene YNL104C
  The level of expressed mRNA in the presence of chemical substance/The level of expressed mRNA in the absence of chemical substance: 2.1
Yeast gene YNL106C
  The level of expressed mRNA in the presence of chemical substance/The level of expressed mRNA in the absence of chemical substance: 0.9
Yeast gene YNL169C
  The level of expressed mRNA in the presence of chemical substance/The level of expressed mRNA in the absence of chemical substance: 1.7
Yeast gene YNL192W
  level of expressed mRNA in the presence/in the absence of chemical substance: 2.7
Yeast gene YNL322C
  The level of expressed mRNA in the presence of chemical substance/The level of expressed mRNA in the absence of chemical substance: 0.8
Yeast gene YNL331C
  The level of expressed mRNA in the presence of chemical substance/The level of expressed mRNA in the absence of chemical substance: 3.1
Yeast gene YNL332W
  The level of expressed mRNA in the presence of chemical substance/The level of expressed mRNA in the absence of chemical substance: 2.1
Yeast gene YNR002C
  The level of expressed mRNA in the presence of chemical substance/The level of expressed mRNA in the absence of chemical substance: 2.1
Yeast gene YNR019W
  The level of expressed mRNA in the presence of chemical substance/The level of expressed mRNA in the absence of chemical substance: 2.1
Yeast gene YNR059W
  The level of expressed mRNA in the presence of chemical substance/The level of expressed mRNA in the absence of chemical substance: 2.4
Yeast gene YOL058W
  The level of expressed mRNA in the presence of chemical substance/The level of expressed mRNA in the absence of chemical substance: 1.2
Yeast gene YOL086C
  level of expressed mRNA in the presence/in the absence of chemical substance: 1.7
Yeast gene YOL108C
  level of expressed mRNA in the presence/in the absence of chemical substance: 1.3
Yeast gene YOL116W
  level of expressed mRNA in the presence/in the absence of chemical substance: 0.8
Yeast gene YOL143C
  The level of expressed mRNA in the presence of chemical substance/The level of expressed mRNA in the absence of chemical substance: 1.2
Yeast gene YOL156W
  level of expressed mRNA in the presence/in the absence of chemical substance: 1.7
Yeast gene YOL165C
  The level of expressed mRNA in the presence of chemical substance/The level of expressed mRNA in the absence of chemical substance: 3.7
Yeast gene YOR002W
  level of expressed mRNA in the presence/in the absence of chemical substance: 0.6
Yeast gene YOR085W
  level of expressed mRNA in the presence/in the absence of chemical substance: 1.0
Yeast gene YOR099W
  The level of expressed mRNA in the presence of chemical substance/The level of expressed mRNA in the absence of chemical substance: 1.6
Yeast gene YOR103C
  level of expressed mRNA in the presence/in the absence of chemical substance: 0.8
Yeast gene YOR108W
  level of expressed mRNA in the presence/in the absence of chemical substance: 1.3
Yeast gene YOR128C
  level of expressed mRNA in the presence/in the absence of chemical substance: 0.4
Yeast gene YOR130C
  The level of expressed mRNA in the presence of chemical substance/The level of expressed mRNA in the absence of chemical substance: 2.1
Yeast gene YOR136W
  The level of expressed mRNA in the presence of chemical substance/The level of expressed mRNA in the absence of chemical substance: 1.5
Yeast gene YOR142W
  level of expressed mRNA in the presence/in the absence of chemical substance: 1.4
Yeast gene YOR176W
  level of expressed mRNA in the presence/in the absence of chemical substance: 1.5
Yeast gene YOR178C
  level of expressed mRNA in the presence/in the absence of chemical substance: 1.0
Yeast gene YOR251C
  level of expressed mRNA in the presence/in the absence of chemical substance: 1.0
Yeast gene YOR336W
  The level of expressed mRNA in the presence of chemical substance/The level of expressed mRNA in the absence of chemical substance: 2.1
Yeast gene YOR347C
  The level of expressed mRNA in the presence of chemical substance/The level of expressed mRNA in the absence of chemical substance: 1.8
Yeast gene YOR348C
  level of expressed mRNA in the presence/in the absence of chemical substance: 1.1
Yeast gene YPL017C
  The level of expressed mRNA in the presence of chemical substance/The level of expressed mRNA in the absence of chemical substance: 1.9
Yeast gene YPL028W
  level of expressed mRNA in the presence/in the absence of chemical substance: 0.9
Yeast gene YPL057C
  level of expressed mRNA in the presence/in the absence of chemical substance: 1.3
Yeast gene YPL135W
  level of expressed mRNA in the presence/in the absence of chemical substance: 1.2
Yeast gene YPL148C
  level of expressed mRNA in the presence/in the absence of chemical substance: 0.6
Yeast gene YPR113W
  level of expressed mRNA in the presence/in the absence of chemical substance: 0.7
Yeast gene YPR165W
  level of expressed mRNA in the presence/in the absence of chemical substance: 1.0
Yeast gene YPR167C
  The level of expressed mRNA in the presence of chemical substance/The level of expressed mRNA in the absence of chemical substance: 1.9
Yeast gene YPR183W
  level of expressed mRNA in the presence/in the absence of chemical substance: 1.6
